Source: patent publication US9376425B2, “Heterocyclic compounds as MDM2 inhibitors for the treatment of cancer” (AMGEN INC., priority 2011, dated 2016)

Molecular target: T1, human MDM2 (GST-hMDM2 1-188), interaction with biotinylated-p53 (1-83) (Homo sapiens, UniProt Q00987)
T1 construct: Amino acid residues 1-188 of human MDM2 were expressed; made in house; host or cells: Escherichia coli
Test: improved HTRF assay (HTRF2 assay), inhibition of HDM2-p53 interaction
Type: binding
Settings: 0.2 nM GST-hMDM2, 0.5 nM biotinylated-p53, 100 mM KF
Outline: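 GST-hMDM2 preincubated 20 min at RT with serially diluted compound, then biotinylated p53 (1-83, E. coli) added for 60 min. Detection with SA-XLent, anti-GST cryptate and KF, equilibrated >4 h; final DMSO 2%. TR-FRET read; % inhibition calculated relative to nutlin-3.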

T1 sequence (Q00987 1-188): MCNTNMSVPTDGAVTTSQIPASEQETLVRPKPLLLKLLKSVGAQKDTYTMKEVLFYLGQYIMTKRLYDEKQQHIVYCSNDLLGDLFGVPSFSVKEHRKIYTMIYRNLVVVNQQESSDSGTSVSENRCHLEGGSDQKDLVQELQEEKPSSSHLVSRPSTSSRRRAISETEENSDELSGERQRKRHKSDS

| Compound | IC50 |
| --- | --- |
| Cc1nnc(C[C@H]2O[C@@H](c3cccc(Cl)c3)[C@@H](c3ccc(Cl)cc3)N([C@H](CN(c3ccccc3F)S(=O)(=O)C3CC3)C3CC3)C2=O)o1 (single isomer, unassigned) [Example 404, N-((S)-2-((2S,3R,6R)-2-(3-Chlorophenyl)-3-(4-chlorophenyl)-6-((5-methyl-1,3,4-oxadiazol-2-yl)methyl)-5-oxomorpholino)-2-cyclopropylethyl)-N-(2-fluorophenyl)cyclopropanesulfonamide or N-((S)-2-((2R,3R,6R)-2-(3-chlorophenyl)-3-(4-chlorophenyl)-6-((5-methyl-1,3,4-oxadiazol-2-yl)methyl)-5-oxomorpholino)-2-cyclopropylethyl)-N-(2-fluorophenyl)cyclopropanesulfonamide] | 134 nM |
| NS(=O)(=O)C[C@H]1O[C@H](c2cccc(Cl)c2)[C@@H](c2ccc(Cl)cc2)N([C@H](CN(c2ccccc2F)S(=O)(=O)C2CC2)C2CC2)C1=O (single isomer, unassigned) [Example 409, N-((S)-2-((2R,3R,6S)-2-(3-Chlorophenyl)-3-(4-chlorophenyl)-5-oxo-6-(sulfamoylmethyl)morpholino)-2-cyclopropylethyl)-N-(2-fluorophenyl)cyclopropanesulfonamide or N-((S)-2-((2S,3R,6S)-2-(3-chlorophenyl)-3-(4-chlorophenyl)-5-oxo-6-(sulfamoylmethyl)morpholino)-2-cyclopropylethyl)-N-(2-fluorophenyl)cyclopropanesulfonamide] | < 1 nM |
| NS(=O)(=O)C[C@H]1O[C@H](c2cccc(Cl)c2)[C@@H](c2ccc(Cl)cc2)N([C@H](CN(c2ccccc2F)S(=O)(=O)C2CC2)C2CC2)C1=O (single isomer, unassigned) [Example 410, N-((S)-2-((2R,3R,6S)-2-(3-Chlorophenyl)-3-(4-chlorophenyl)-5-oxo-6-(sulfamoylmethyl)morpholino)-2-cyclopropylethyl)-N-(2-fluorophenyl)cyclopropanesulfonamide or N-((S)-2-((2S,3R,6S)-2-(3-chlorophenyl)-3-(4-chlorophenyl)-5-oxo-6-(sulfamoylmethyl)morpholino)-2-cyclopropylethyl)-N-(2-fluorophenyl)cyclopropanesulfonamide] | < 1 nM |
| CC(C)(C)S(=O)(=O)C[C@H](C1CC1)N1C(=O)[C@@](C)(CC(=O)O)O[C@H](c2cccc(Cl)c2)[C@H]1c1ccc(Cl)c(F)c1 (single isomer, unassigned) [Example 411, 2-((2R,5R,6R)-4-((S)-2-(tert-Butylsulfonyl)-1-cyclopropylethyl)-5-(4-chloro-3-fluorophenyl)-6-(3-chlorophenyl)-2-methyl-3-oxomorpholin-2-yl)acetic acid or 2-((2S,5R,6R)-4-((S)-2-(tert-butylsulfonyl)-1-cyclopropylethyl)-5-(4-chloro-3-fluorophenyl)-6-(3-chlorophenyl)-2-methyl-3-oxomorpholin-2-yl)acetic acid] | < 1 nM |
| CC(C)(C)S(=O)(=O)C[C@H](C1CC1)N1C(=O)[C@@](C)(CC(=O)O)O[C@H](c2cccc(Cl)c2)[C@H]1c1ccc(Cl)c(F)c1 (single isomer, unassigned) [Example 412, 2-((2R,5R,6R)-4-((S)-2-(tert-Butylsulfonyl)-1-cyclopropylethyl)-5-(4-chloro-3-fluorophenyl)-6-(3-chlorophenyl)-2-methyl-3-oxomorpholin-2-yl)acetic acid or 2-((2S,5R,6R)-4-((S)-2-(tert-butylsulfonyl)-1-cyclopropylethyl)-5-(4-chloro-3-fluorophenyl)-6-(3-chlorophenyl)-2-methyl-3-oxomorpholin-2-yl)acetic acid] | 11 nM |
| CC[C@@H]([C@H](C)S(=O)(=O)C(C)C)N1C(=O)[C@@H](CC(=O)O)O[C@H](c2cccc(Cl)c2)[C@H]1c1ccc(Cl)cc1 (single isomer, unassigned) [Example 413] | < 1 nM |
| CC[C@@H]([C@H](C)S(=O)(=O)C(C)C)N1C(=O)[C@@H](CC(=O)O)O[C@H](c2cccc(Cl)c2)[C@H]1c1ccc(Cl)cc1 (single isomer, unassigned) [Example 414] | 1 nM |
| CC[C@@H]([C@H](C)S(=O)(=O)C(C)C)N1C(=O)[C@@H](CC(=O)O)O[C@H](c2cccc(Cl)c2)[C@H]1c1ccc(Cl)cc1 (single isomer, unassigned) [Example 415] | 1 nM |
| CC[C@@H]([C@H](C)S(=O)(=O)C(C)C)N1C(=O)[C@@H](CC(=O)O)O[C@H](c2cccc(Cl)c2)[C@H]1c1ccc(Cl)cc1 (single isomer, unassigned) [Example 416] | 4 nM |
| CC[C@@H]([C@H](C)S(=O)(=O)C(C)(C)C)N1C(=O)[C@@H](CC(=O)O)O[C@H](c2cccc(Cl)c2)[C@H]1c1ccc(Cl)cc1 (single isomer, unassigned) [Example 419] | 4 nM |
| CC[C@@H]([C@H](C)S(=O)(=O)C(C)(C)C)N1C(=O)[C@@H](CC(=O)O)O[C@H](c2cccc(Cl)c2)[C@H]1c1ccc(Cl)cc1 (single isomer, unassigned) [Example 420] | 12 nM |
| CC(C)S(=O)(=O)[C@H]1CCC[C@@H]1N1C(=O)[C@@H](CC(=O)O)O[C@H](c2cccc(Cl)c2)[C@H]1c1ccc(Cl)cc1 (single isomer, unassigned) [Example 421] | 13600 nM |
| CC(C)S(=O)(=O)[C@H]1CCC[C@@H]1N1C(=O)[C@@H](CC(=O)O)O[C@H](c2cccc(Cl)c2)[C@H]1c1ccc(Cl)cc1 (single isomer, unassigned) [Example 422] | 3 nM |
| C[C@@H](CS(=O)(=O)C(C)(C)C)N1C(=O)[C@@H](CC(=O)O)O[C@H](c2cc(F)cc(Cl)c2)[C@H]1c1ccc(Cl)c(F)c1 (single isomer, unassigned) [Example 423, 2-((2R,5R,6R)-4-((S)-1-(tert-Butylsulfonyl)propan-2-yl)-5-(4-chloro-3-fluorophenyl)-6-(3-chloro-5-fluorophenyl)-3-oxomorpholin-2-yl)acetic acid or 2-((2S,5R,6R)-4-((S)-1-(tert-butylsulfonyl)propan-2-yl)-5-(4-chloro-3-fluorophenyl)-6-(3-chloro-5-fluorophenyl)-3-oxomorpholin-2-yl)acetic acid] | 1 nM |
| C[C@@H](CS(=O)(=O)C(C)(C)C)N1C(=O)[C@@H](CC(=O)O)O[C@H](c2cc(F)cc(Cl)c2)[C@H]1c1ccc(Cl)c(F)c1 (single isomer, unassigned) [Example 424, 2-((2R,5R,6R)-4-((S)-1-(tert-Butylsulfonyl)propan-2-yl)-5-(4-chloro-3-fluorophenyl)-6-(3-chloro-5-fluorophenyl)-3-oxomorpholin-2-yl)acetic acid or 2-((2S,5R,6R)-4-((S)-1-(tert-butylsulfonyl)propan-2-yl)-5-(4-chloro-3-fluorophenyl)-6-(3-chloro-5-fluorophenyl)-3-oxomorpholin-2-yl)acetic acid] | 3 nM |
| CC[C@@H](CS(=O)(=O)C(C)(C)C)N1C(=O)[C@@H](CC(=O)O)O[C@H](c2cc(F)cc(Cl)c2)[C@H]1c1ccc(Cl)c(F)c1 (single isomer, unassigned) [Example 425, 2-((2R,5R,6R)-4-((S)-1-(tert-Butylsulfonyl)butan-2-yl)-5-(4-chloro-3-fluorophenyl)-6-(3-chloro-5-fluorophenyl)-3-oxomorpholin-2-yl)acetic acid or 2-((2S,5R,6R)-4-((S)-1-(tert-butylsulfonyl)butan-2-yl)-5-(4-chloro-3-fluorophenyl)-6-(3-chloro-5-fluorophenyl)-3-oxomorpholin-2-yl)acetic acid] | < 1 nM |
| CC[C@@H](CS(=O)(=O)C(C)(C)C)N1C(=O)[C@@H](CC(=O)O)O[C@H](c2cc(F)cc(Cl)c2)[C@H]1c1ccc(Cl)c(F)c1 (single isomer, unassigned) [Example 426, 2-((2R,5R,6R)-4-((S)-1-(tert-Butylsulfonyl)butan-2-yl)-5-(4-chloro-3-fluorophenyl)-6-(3-chloro-5-fluorophenyl)-3-oxomorpholin-2-yl)acetic acid or 2-((2S,5R,6R)-4-((S)-1-(tert-butylsulfonyl)butan-2-yl)-5-(4-chloro-3-fluorophenyl)-6-(3-chloro-5-fluorophenyl)-3-oxomorpholin-2-yl)acetic acid] | 1 nM |
| CC[C@@H](CS(=O)(=O)C(C)(C)C)N1C(=O)[C@@H](CC(=O)OC)O[C@H](c2cccc(Cl)c2)[C@H]1c1ccc(Cl)cc1 [Example 149, Methyl 2-((2R,5R,6R)-4-((S)-1-(tert-butylsulfonyl)butan-2-yl)-6-(3-chlorophenyl)-5-(4-chlorophenyl)-3-oxomorpholin-2-yl)acetate] | 30 nM |
| CC[C@@H](CS(=O)(=O)C(C)(C)C)N1C(=O)[C@H](CC(=O)OC)O[C@H](c2cccc(Cl)c2)[C@H]1c1ccc(Cl)cc1 [Example 150, Methyl 2-((2S,5R,6R)-4-((S)-1-(tert-butylsulfonyl)butan-2-yl)-6-(3-chlorophenyl)-5-(4-chlorophenyl)-3-oxomorpholin-2-yl)acetate] | 21 nM |
| CC[C@@H](CS(=O)(=O)C(C)(C)C)N1C(=O)[C@H](CCO)O[C@H](c2cccc(Cl)c2)[C@H]1c1ccc(Cl)cc1 [Example 151, (2S,5R,6R)-4-((S)-1-(tert-butylsulfonyl)butan-2-yl)-6-(3-chlorophenyl)-5-(4-chlorophenyl)-2-(2-hydroxyethyl)morpholin-3-one] | 22 nM |
| CC[C@@H](CS(=O)(=O)C(C)(C)C)N1C(=O)[C@@H](CCO)O[C@H](c2cccc(Cl)c2)[C@H]1c1ccc(Cl)cc1 [Example 152, (2R,5R,6R)-4-((S)-1-(tert-butylsulfonyl)butan-2-yl)-6-(3-chlorophenyl)-5-(4-chlorophenyl)-2-(2-hydroxyethyl)morpholin-3-one] | 37 nM |
| CC[C@@H](CS(=O)(=O)C(C)(C)C)N1C(=O)[C@@H](CCOC)O[C@H](c2cccc(Cl)c2)[C@H]1c1ccc(Cl)cc1 [Example 153, (2R,5R,6R)-4-((S)-1-(tert-butylsulfonyl)butan-2-yl)-6-(3-chlorophenyl)-5-(4-chlorophenyl)-2-(2-methoxyethyl)morpholin-3-one] | 59 nM |
